Structures are written as SMILES. Where a name gives a salt, the structure may show the parent alone.

Assay [1] relates to human aspartyl (asparaginyl) β-hydroxylase (HAAH) mRNA expression. The assay can be described thus: HAAH mRNA expression (qRT-PCR) in patient leukocytes cultured with or without imatinib. It counts as cell-based. The note with it: 1 μM imatinib, 24 hours, vs untreated cells. From the text:
This assay procedure allows the quantitative comparison of test RNA to a standard curve using single tube TaqMan® reactions.
Analyze as described in Perkin Elmer sequence detection system manual. A standard amplification curve of ASPH-B was obtained previously, to which unknown samples are compared to obtain the number of copies of HAAH mRNA in the sample.
Patient leukocytes were isolated from patient blood samples and grown in culture in the presence or absence of imatinib mesylate. After overnight incubation, qRT-PCR was used to determine human aspartyl (asparaginyl) β-hydroxylase (HAAH) mRNA expression in both treated and untreated cells. Percentage decrease in mRNA expression level is determined by comparing expression levels in treated vs. non-treated leukocytes from each individual patient.
[…]. This percentage change is consistent with a prediction of sensitivity to imatinib mesylate, based on numerous studies done by the present inventors. […].
On the technique in general: Real-time PCR tracks product formation cycle by cycle.

Assay [2] concerns gastrointestinal stromal tumor (GIST) cells, which express an activating c-kit mutation. The following applies: in vitro; cited from earlier work.

As for `Cc1ccc(NC(=O)c2ccc(CN3CCN(C)CC3)cc2)cc1Nc1nccc(-c2cccnc2)n1` [imatinib, Imatinib mesylate], the “decrease in HAAH expression after culture in the presence of imatinib” value in assay [1] (leukocytes of 27 CML patients (later responders)) is listed as 30-75%. Moreover, the “reduction in HAAH transcript levels after culture in the presence of imatinib” value in assay [1] (leukocytes of the 12 other CML patients (non-responders)) is < 25%. Further, in assay [2], the apoptosis entry is “induces apoptosis” and the proliferation result was “inhibits proliferation”.

The values above are taken from patent US20080124718A1, “METHODS OF DIAGNOSING, PREDICTING THERAPEUTIC EFFICACY AND SCREENING FOR NEW THERAPEUTIC AGENTS FOR LEUKEMIA” (Panacea Pharmaceuticals, Inc., priority 2006, published 2008).
